One data set concerns hCD39 mRNA. Nature of the data set: IC50 determination / concentration-dependent hCD39 mRNA knockdown in HDLM-2 cells. It counts as cell-based, human. The settings on record: for mRNA inhibition: HDLM-2, 3 days; for IC50: hCD39 mRNA, 3 days. The essentials:
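Antisense oligonucleotides applied to HDLM-2 cells for 3 days, titrated 10 μM down to 4.5 nM. hCD39 mRNA normalized to HPRT1 and expressed as residual level relative to untreated cells (100); mean of triplicates, IC50 from concentration-response.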

In another data set the test system is CD39 protein. Nature of the data set: CD39 protein expression in human CD8+ T cells (flow cytometry, Example 11). It counts as cell-based. The following applies: 5 μM, 5 days, anti-CD3. The method, then:
(§1) FIG. 12A-12C depict human CD8^+ T cells which were labelled with cell proliferation dye, activated with anti-CD3 and treated with 5 μM of the antisense oligonucleotide A04040H (black column) or the control oligonucleotide S6 (white column) for a total treatment time of 5 days. In the vehicle control (striped column), cells were activated with anti-CD3 only. Subsequently, 400 μM of ATP or vehicle were added to cells on day 3 and day 4 after start of oligonucleotide treatment. Furthermore, as additional control, the small molecular CD39-inhibitor ARL67156 trisodium salt was added at 20 μM to cells on day 4, for an incubation time of 24 h (checked column). On day 5 after start of oligonucleotide treatment, (FIG. 12A) CD39 protein expression, (FIG. 12B) proliferation and (FIG. 12C) absolute cell numbers of CD8^+ T cells were analyzed using Flow Cytometry. Depicted is the mean of triplicate wells+/−SD.
In cancer, ATP is released from tumor cells for example after cell death induced by chemotherapy or radiation therapy. Since the CD39-CD73 axis plays an important role for T cell function the effects of A04040H on T cell proliferation in the presence or absence of extracellular ATP were investigated. […] On day 5 after start of oligonucleotide treatment, CD39 protein expression, proliferation, and absolute cell numbers of CD8^+ T cells were analyzed using Flow Cytometry.
(Flow cytometry measures light scatter and fluorescence of single cells or particles in a stream.)

The subject of another data set is human CD8+ T cells. Description: Proliferation and absolute cell numbers of human CD8+ T cells in presence or absence of extracellular ATP. In kind it is cell-based. The settings on record: 5 μM oligonucleotide 5 days or 20 μM ARL67156 24 h. How it is done: as §1
In cancer, ATP is released from tumor cells for example after cell death induced by chemotherapy or radiation therapy. Since the CD39-CD73 axis plays an important role for T cell function the effects of A04040H on T cell proliferation in the presence or absence of extracellular ATP were investigated. Human CD8^+ T cells were labelled with cell proliferation dye, activated with anti-CD3 and treated with 5 μM of the antisense oligonucleotide A04040H or the control oligonucleotide S6 for a total treatment time of 5 days. In the vehicle control, cells were activated with anti-CD3 only. Subsequently, 400 μM of ATP or vehicle were added to cells on day 3 and day 4 after start of oligonucleotide treatment. Furthermore, as additional control, the small molecular CD39-inhibitor ARL67156 trisodium salt was added at 20 μM to cells on day 4 for an incubation time of 24 h. On day 5 after start of oligonucleotide treatment, CD39 protein expression, proliferation, and absolute cell numbers of CD8^+ T cells were analyzed using Flow Cytometry.

The next data set has as its system mCD39 mRNA. Description: mCD39 mRNA knockdown efficacy screen in A20 cells (single dose, gymnotic delivery, QuantiGene Singleplex). In kind it is cell-based, mouse. The settings on record: 10 μM, three days, normalized to HPRT1.
The mark [1] stands for this setting: absence of extracellular ATP, vs vehicle.
The mark [2] stands for this setting: supplementation with 400 μM of ATP.

l = locked nucleic acid (LNA); d = 2'-deoxy (DNA)

As for “+G*+T*+T*T*G*T*G*T*G*A*G*A*G*C*+T*+T (antisense GTTTGTGTGAGAGCTT; sugars from the 5' end l3 d11 l2, all phosphorothioate, methylation of C not given here) [A04040H]”, the mRNA inhibition with hCD39 mRNA (0.45 nM, Table 12) is recorded as 0.00%; with hCD39 mRNA (1.3 nM, Table 12), 0.00%; in the data set on hCD39 mRNA (4 nM, Table 12) it was 0.00%; in the data set with hCD39 mRNA (0.0045 μM, Table 8), 22.64%; with hCD39 mRNA (0.0045 μM, Table 9) it was 12.51%; in the data set with hCD39 mRNA (12 nM, Table 12) it was 0.00%. Besides, the mRNA inhibition with hCD39 mRNA (0.013 μM, Table 8) worked out at 40.51%; in the data set with hCD39 mRNA (0.013 μM, Table 9), 36.68%; in the data set with hCD39 mRNA (0.04 μM, Table 8) it was 62.42%; with hCD39 mRNA (0.04 μM, Table 9), 74.68%; in the data set with hCD39 mRNA (40 nM, Table 12) it was 27.56%; with hCD39 mRNA (110 nM, Table 12), 69.84%. Moreover, the mRNA inhibition in the data set on hCD39 mRNA (0.12 μM, Table 8) was determined as 88.40%; with hCD39 mRNA (0.12 μM, Table 9) it was 93.14%; with hCD39 mRNA (330 nM, Table 12) it was 91.26%; in the data set with hCD39 mRNA (0.4 μM, Table 8), 95.94%; in the data set on hCD39 mRNA (0.4 μM, Table 9) it was 98.42%; in the data set with hCD39 mRNA (1000 nM, Table 12), 97.06%. Further, the mRNA inhibition in the data set with hCD39 mRNA (1.1 μM, Table 8) worked out at 98.54%; with hCD39 mRNA (1.1 μM, Table 9), 99.38%; in the data set on hCD39 mRNA (3.3 μM, Table 8), 99.01%; with hCD39 mRNA (3.3 μM, Table 9), 99.32%; in the data set with hCD39 mRNA (10 μM, Table 8), 98.98%; in the data set with hCD39 mRNA (10 μM, Table 9) it was 99.57%. In the data set on hCD39 mRNA (HDLM-2 cells, compared to untreated cells, first IC50 determination), the “maximal target inhibition (hCD39 mRNA)” value was 99%. The IC50 – broadly, the concentration that inhibits the measured activity by half – was found to be 25.3 nM in the data set on hCD39 mRNA (HDLM-2 cells, first screening round (Table 8)); 21.5 nM in the data set with hCD39 mRNA (HDLM-2 cells, second screening round (Table 9)); 52.8 nM in the data set on hCD39 mRNA (HDLM-2 cells, third screening round (Table 12)). The CD39 protein expression result in the data set on CD39 protein was “potently suppressed”. For the same substance, in the data set with human CD8+ T cells (setting [1]), the “absolute cell numbers of CD8+ T cells” value is listed as “no differences”. For the same substance, the “proliferation of CD8+ T cells” value in the data set with human CD8+ T cells (setting [1]) is on record as “no differences”; with human CD8+ T cells (setting [2]) it was “not reduced”. For the same substance, the “absolute numbers of CD8+ T cells” value in the data set with human CD8+ T cells (setting [2]) is recorded as “not altered”.
Consider “+C*+G*+T*T*T*A*G*G*C*T*A*T*G*T*A*+C*+T*+T (CGTTTAGGCTATGTACTT; chemistry not fully specified) [neg1, negative control antisense oligonucleotide not hybridizing with CD39, described in WO2014154843 A1, reference compound]”, for which, in the data set with mCD39 mRNA, the “Relative mCD39 mRNA expression (compared to non-treated cells)” value is given as 0.67.

The record behind these values is US11959083B2, “Immunosuppression-reverting oligonucleotides inhibiting the expression of CD39” (Secarna Pharmaceuticals GmbH & Co. KG, priority 2016, dated 2024).
